Data on one compound can be found in ChEMBL document CHEMBL1150715, “Puupehenone, a cytotoxic metabolite from a deep water marine sponge, Stronglyophora hartmani” (J Nat Prod, 1987).

As a reminder, the IC50 is the point on the concentration scale where inhibition reaches its midpoint. Low values mean greater potency in that assay, high ones weaker potency in that assay. One may read the T/C as the result in the treated group divided by that in the control group, in per cent. By MIC is commonly meant the least concentration at which growth counts as inhibited. Lower therefore signals a more susceptible organism.

Values after ≈ are worked out from the molar mass of the structure shown.

The subject of assay [1] is P388. As to the kind of experiment: Cytotoxicity against mouse P388 cells. Type of assay: functional, cell-based.
A further assay deals with A549. As to the kind of experiment: Cytotoxicity against human A549 cells. Format: functional, cell-based.
The test system of a further assay is HCT-8. The assay is described as follows: Cytotoxicity against human HCT8 cells. Type of assay: functional, cell-based.
The next assay relates to MCF7. As to the kind of experiment: Cytotoxicity against human MCF7 cells. Format: functional, cell-based.
The test system of assay [2] is P388. The assay is described as follows: In vivo cytotoxicity against mouse P388 cells at 25 mg/kg administered daily for 9 days relative to control. Format: functional.
For a further assay, the system named is Candida albicans. As to the kind of experiment: Antifungal activity against Candida albicans. Type of assay: functional.

As to `CC1(C)CCC[C@]2(C)[C@H]3C=C4C=C(O)C(=O)C=C4O[C@@]3(C)CC[C@@H]12` [PUUPEHENONE], the half-maximal inhibitory concentration (IC50) with P388 [1] is 1 mg/L (≈ 3.04 µM); in the assay on A549 it was 0.1 mg/L (≈ 0.304 µM); in the assay with HCT-8, 1 mg/L (≈ 3.04 µM); in the assay on MCF7 it was 0.1 mg/L (≈ 0.304 µM). In addition, the T/C in the assay on P388 [2] was found to be 119%. Besides, in the assay with Candida albicans, the MIC was 3 mg/L (≈ 9.13 µM).
